Results taken from patent publication US8993768B2, “Tropolone compounds for treating or preventing retroviral infection” (The United States of America, as represented by the …, priority 2011, dated 2015).
Read-outs that look alike come from different tables or passages of the source.

Legend:
[1] = Compound cytotoxicity in uninfected cells (same assay plate); assay type: cell-based; details: human, uninfected CEM-SS cells; read-out: Virus Replication CC50
Protocol: (§1) All samples were tested in duplicate. The HIV-1 virus strain RF was used to infect CEM-SS cells. Compound cytotoxicity was measured in the same assay plate using uninfected cells. Regression analysis was used to estimate the effective concentration (EC50) as well as the cytotoxic concentration (CC50).

[2] = system: HIV-1 virus strain RF in CEM-SS cells; test: HIV-1 cytopathicity assay; assay type: cell-based; details: for EC50: read-out: Virus Replication EC50; for Virus Replication EC50, protective effect class: tested up to 50 μM
Protocol: This assay was conducted as previously reported (Weislow, O, S., et al., J. Natl. Cancer Inst., 81(8):577-86 (1989)). Samples were dissolved in DMSO at 10 mM and diluted to a final high concentration of 50 μM in the 96-well assay plate, with 2-fold dilutions made to a low concentration of about 0.78 μM. All samples were tested in duplicate. The HIV-1 virus strain RF was used to infect CEM-SS cells. Compound cytotoxicity was measured in the same assay plate using uninfected cells. Regression analysis was used to estimate the effective concentration (EC50) as well as the cytotoxic concentration (CC50).

[3] = biological target: T1, HIV-1 RNase H (p66/p51 HIV-1 RT) (Human immunodeficiency virus type 1 group M subtype B, UniProt P04585); test: High throughput RNase H assay on sequence-independent RNA/DNA hybrid; assay type: biochemical; details: read-out: In vitro IC50
T1 construct: RT is a p66/p51 heterodimer comprised of asymmetrically-organized subunits processed from the 165 kDa gag/pol polyprotein precursor; (His)6; made in house; host or cells: Escherichia coli
Protocol: IC50 values were determined as previously reported (Budihas, S. R., et al., Nucleic Acids Res., 33(4):1249-56 (2005)), using an 18-nucleotide 3′-flourescein-labeled RNA annealed to a complementary 18-nucleotide 5′-dabsyl-labeled DNA. […] The reaction was initiated by adding 1 μl of 100 mM MgCl2 to 9 μl of mixture containing 4 ng enzyme, 200 nM substrate, 20 μM α-hydroxytropolones in 50 mM Tris, pH 8.0, 80 mM KCl, 2 mM DTT, and 10% DMSO at 37° C., and quenched with 10 μl of a gel-loading buffer after 10 minutes. Hydrolysis products were fractionated by denaturing polyacrylamide gel electrophoresis and visualized by fluorescent imaging (Typhoon Trio+, GE Healthcare, Piscataway, N.J.). […]

HIV-1 RT RNase H = biological target: T2, HIV-1 RT RNase H (Human immunodeficiency virus type 1 group M subtype B, UniProt P04585); test: Cleavage of the HIV-1 polypurine tract (PPT) primer, PPT/U3 junction; assay type: biochemical; details: 20 μM inhibitor
T2 construct: RT is a p66/p51 heterodimer comprised of asymmetrically-organized subunits processed from the 165 kDa gag/pol polyprotein precursor; (His)6; made in house; host or cells: Escherichia coli
Protocol: FIG. 2A depicts a schematic model of RNA/DNA substrate, indicating the RNase H cleavage site at the PPT/U3 junction (< >). The PPT is indicated by the shaded box. FIG. 2B depicts the quantification of PPT cleavage data. All inhibitors were evaluated at 20 μM.
IC50 values were determined as previously reported (Budihas, S. R., et al., Nucleic Acids Res., 33(4):1249-56 (2005)), using an 18-nucleotide 3′-flourescein-labeled RNA annealed to a complementary 18-nucleotide 5′-dabsyl-labeled DNA. […] The reaction was initiated by adding 1 μl of 100 mM MgCl2 to 9 μl of mixture containing 4 ng enzyme, 200 nM substrate, 20 μM α-hydroxytropolones in 50 mM Tris, pH 8.0, 80 mM KCl, 2 mM DTT, and 10% DMSO at 37° C., and quenched with 10 μl of a gel-loading buffer after 10 minutes. Hydrolysis products were fractionated by denaturing polyacrylamide gel electrophoresis and visualized by fluorescent imaging (Typhoon Trio+, GE Healthcare, Piscataway, N.J.).
Since the high-throughput RNase H assay examines non-specific, “polymerase-independent” RNase H activity defined by the spatial separation of the DNA polymerase and RNase H active site of HIV-1 RT (Gopalakrishnan, V., et al., Proc. Natl. Acad. Sci. USA, 89(22):10763-7 (1992)), an examination of whether α-hydroxytropolones altered cleavage specificity on a more biologically-relevant substrate, namely the polypurine tract (PPT) primer, which must be processed from the RNA/DNA replication intermediate to initiate (+) strand DNA synthesis.

uninfected CEM-SS cells = test: Compound cytotoxicity in uninfected cells (same assay plate); assay type: cell-based; details: for cytotoxicity (in words): up to a concentration of 50 μM; for CC50: uninfected CEM-SS cells, read-out: Virus Replication CC50
Protocol: as §1

[4] = Human immunodeficiency virus 1, CEM-SS, HIV-1 RF
[5] = HIV-1 RNase H enzymatic activity, sequence-independent RNA/DNA hybrid

SMILES: Cc1cc(O)c(=O)c(O)c2c1CC(C(C)(O)CN1CCCCC1)CC2 (mixture of isomers) [Compound 1, 5,7-Dihydroxy-2-(1-hydroxy-1-methyl-2-piperidin-1-yl-ethyl)-9-methyl-1,2,3,4-tetrahydro benzocyclohepten-6-one]
- CC50 [1]: > 50 µM
- protection against the cytopathic effect of the virus (in words) ([2]; HIV-1 RF): showed protection
- EC50 [2, 4]: 10.2 µM
- IC50 [3, 5]: 0.93 µM

SMILES: CCN(CC)CC(C)(O)C1CCc2c(c(C)cc(O)c(=O)c2O)C1 (mixture of isomers) [Compound 3, 2-(2-Diethylamino-1-hydroxy-1-methyl-ethyl)-5,7-dihydroxy-9-methyl-1,2,3,4-tetrahydrobenzocyclohepten-6-one]
- CC50 [1]: > 50 µM
- protection against the cytopathic effect of the virus (in words) ([2]; HIV-1 RF): slight protection
- Virus Replication EC50, protective effect class ([2]; HIV-1 RF): <50% (<50%=protective effect less than 50% of control, i.e. weak activity)
- IC50 [3, 5]: 0.49 µM
- inhibition of PPT/U3 cleavage (in words) (HIV-1 RT RNase H): ineffective

SMILES: Cc1cc(O)c(=O)c(O)c2c1CC(C(C)(O)CNCc1ccccc1F)CC2 (mixture of isomers) [Compound 4, 2-[2-(2-Fluoro-benzylamino)-1-hydroxy-1-methyl-ethyl]-5,7-dihydroxy-9-methyl-1,2,3,4-tetrahydrobenzocyclohepten-6-one]
- cytotoxicity (in words) (uninfected CEM-SS cells): not cytotoxic
- CC50 [1]: > 50 µM
- protection against the cytopathic effect of the virus (in words) ([2]; HIV-1 RF): no protection
- IC50 [3, 5]: 1.4 µM
- inhibition of PPT/U3 cleavage (in words) (HIV-1 RT RNase H): less active

SMILES: CCSCC(C)(O)C1CCc2c(c(C)cc(O)c(=O)c2O)C1 (mixture of isomers) [Compound 6, 2-(2-Ethylthio-1-hydroxy-1-methyl-ethyl)-5,7-dihydroxy-9-methyl-1,2,3,4-tetrahydrobenzocyclohepten-6-one]
- CC50 [1]: 25.8 µM
- protection against the cytopathic effect of the virus (in words) ([2]; HIV-1 RF): slight protection
- Virus Replication EC50, protective effect class ([2]; HIV-1 RF): <50% (<50%=protective effect less than 50% of control, i.e. weak activity)
- IC50 [3, 5]: 0.41 µM

SMILES: Cc1cc(O)c(=O)c(O)c2c1CC(C(C)(O)CSc1ccccc1)CC2 (mixture of isomers) [Compound 7, 5,7-Dihydroxy-2-(1-hydroxy-1-methyl-2-phenylthio-ethyl)-9-methyl-1,2,3,4-tetrahydrobenzocyclohepten-6-one]
- CC50 [1]: 17.8 µM
- protection against the cytopathic effect of the virus (in words) ([2]; HIV-1 RF): showed protection
- EC50 [2, 4]: 11.5 µM
- IC50 [3, 5]: 0.91 µM

SMILES: Cc1cc(O)c(=O)c(O)c2c1CC(C(C)(O)CSCc1ccccc1)CC2 (mixture of isomers) [Compound 8, 2-(2-Benzylthio-1-hydroxy-1-methyl-ethyl)-5,7-dihydroxy-9-methyl-1,2,3,4-tetrahydrobenzocyclohepten-6-one]
- CC50 [1]: 17.4 µM
- protection against the cytopathic effect of the virus (in words) ([2]; HIV-1 RF): showed protection
- EC50 [2, 4]: ~4.2 µM
- IC50 [3, 5]: 1.3 µM

SMILES: CCS(=O)(=O)CC(C)(O)C1CCc2c(c(C)cc(O)c(=O)c2O)C1 (mixture of isomers) [Compound 9, 2-(2-Ethanesulfonyl-1-hydroxy-1-methyl-ethyl)-5,7-dihydroxy-9-methyl-1,2,3,4-tetrahydrobenzocyclohepten-6-one]
- CC50 [1]: 10.4 µM
- protection against the cytopathic effect of the virus (in words) ([2]; HIV-1 RF): slight protection
- Virus Replication EC50, protective effect class ([2]; HIV-1 RF): <50% (<50%=protective effect less than 50% of control, i.e. weak activity)
- IC50 [3, 5]: 0.26 µM
- inhibition at 20 µM (HIV-1 RT RNase H; read-out: effectiveness in inhibiting PPT/U3 cleavage): ~100%

SMILES: Cc1cc(O)c(=O)c(O)c2c1CC(C(C)(O)CS(=O)(=O)c1ccccc1)CC2 (mixture of isomers) [Compound 11, 2-(2-benzenesulfonyl-1-hydroxy-1-methyl-ethyl)-5,7-dihydroxy-9-methyl-1,2,3,4-tetrahydrobenzocyclohepten-6-one]
- CC50 [1]: > 50 µM
- protection against the cytopathic effect of the virus (in words) ([2]; HIV-1 RF): showed protection
- EC50 [2, 4]: 21.2 µM
- IC50 [3, 5]: 0.59 µM
- inhibition of PPT/U3 cleavage (in words) (HIV-1 RT RNase H): ineffective

SMILES: Cc1cc(O)c(=O)c(O)c2c1CC(C(C)(O)CO)CC2 (mixture of isomers) [Compound 12, 2-(1,2-Dihydroxy-1-methyl-ethyl)-5,7-dihydroxy-9-methyl-1,2,3,4-tetrahydrobenzocyclohepten-6-one]
- CC50 (uninfected CEM-SS cells): > 50 µM
- cytotoxicity (in words) (uninfected CEM-SS cells): not cytotoxic
- protection against the cytopathic effect of the virus (in words) ([2]; HIV-1 RF): no protection
- IC50 [3, 5]: 1.9 µM

SMILES: Cc1cc(O)c(=O)c(O)c2c1CC(C(C)O)CC2 (mixture of isomers) [Compound 13, 5,7-Dihydroxy-2-(1-hydroxy-ethyl)-9-methyl-1,2,3,4-tetrahydrobenzocyclohepten-6-one]
- CC50 [1]: 26.1 µM
- protection against the cytopathic effect of the virus (in words) ([2]; HIV-1 RF): showed protection
- EC50 [2, 4]: 6.9 µM
- IC50 [3, 5]: 0.75 µM

SMILES: Cc1cc(O)c(=O)c(O)c2c1CC(C(C)NCc1ccccc1)CC2 (mixture of isomers) [Compound 14, 2-(1-Benzylamino-ethyl)-5,7-Dihydroxy-9-methyl-1,2,3,4-tetrahydrobenzocyclohepten-6-one]
- CC50 [1]: 16.7 µM
- protection against the cytopathic effect of the virus (in words) ([2]; HIV-1 RF): showed protection
- EC50 [2, 4]: 10.6 µM
- IC50 [3, 5]: 1.1 µM
- inhibition of PPT/U3 cleavage (in words) (HIV-1 RT RNase H): less active

SMILES: Cc1cc(O)c(=O)c(O)c2c1CC(C(C)(O)Cn1ccnc1)CC2 (stereo not drawn) [Compound 2, 5,7-Dihydroxy-2-(1-hydroxy-2-imadazol-1-yl-1-methyl-ethyl)-9-methyl-1,2,3,4-tetrahydro benzocyclohepten-6-one]
- CC50 [1]: > 50 µM
- protection against the cytopathic effect of the virus (in words) ([2]; HIV-1 RF): showed protection
- EC50 ([2]; Human immunodeficiency virus 1, HIV-1 RF): 42.1 µM
- inhibition of PPT/U3 cleavage (in words) (HIV-1 RT RNase H): less active

SMILES: CC(C)c1ccc(O)c(=O)c(O)c1 [β-Thujaplicinol, reference compound]
- CC50 (uninfected CEM-SS cells): 2.3 µM
- protection against the cytopathic effect of the virus (in words) ([2]; HIV-1 RF): no protection
- EC50 ([2]; HIV-1 RF): 2.3 µM
- IC50 [3]: 0.21 µM
